From the supplement of paper PMC12463676, “Small-molecule dissolution of stress granules by redox modulation benefits ALS models” (Nature Chemical Biology, 2025)

Assays:
lipoamide = compound: NC(=O)CCCCC1CCSS1 [lipoamide]; test: thermal stability z-score vs DMSO; higher = more thermally stabilized by treatment; conditions: HeLa, lipoamide concentration 100 µM
Experimental: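 Cellular thermal proteome profiling in HeLa cells. Cells were treated with 100 µM lipoamide for 1 h, with or without 1 mM arsenate for a further 1 h, then heated to ten temperatures (37-66.3 °C), and soluble protein was quantified by TMT mass spectrometry relative to 0.1% DMSO controls. The thermal stability score (sum of log2 fold changes minus the abundance score) was transformed to a z-score; mean of n = 3 experiments.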

potassium arsenate = compound: O=[As]([O-])(O)O.[K+] [potassium arsenate]; test: as above; conditions: HeLa; arsenate concentration 1 mM
Experimental: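 Cellular thermal proteome profiling in HeLa cells treated with 1 mM arsenate for 1 h (DMSO pretreatment), heated to ten temperatures (37-66.3 °C). Soluble protein was quantified by TMT mass spectrometry relative to DMSO controls; the thermal stability score was transformed to a z-score; mean of n = 3 experiments.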

[1] = arsenate co-treatment: 1 mM arsenate 1 h
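Further: each temperature applied for 3 min, abundance score taken as mean log2 fold change at the two lowest temperatures, z-score obtained by mean subtraction and division by SD.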

Sequence of UniProt P78344 (P78344 whole entry): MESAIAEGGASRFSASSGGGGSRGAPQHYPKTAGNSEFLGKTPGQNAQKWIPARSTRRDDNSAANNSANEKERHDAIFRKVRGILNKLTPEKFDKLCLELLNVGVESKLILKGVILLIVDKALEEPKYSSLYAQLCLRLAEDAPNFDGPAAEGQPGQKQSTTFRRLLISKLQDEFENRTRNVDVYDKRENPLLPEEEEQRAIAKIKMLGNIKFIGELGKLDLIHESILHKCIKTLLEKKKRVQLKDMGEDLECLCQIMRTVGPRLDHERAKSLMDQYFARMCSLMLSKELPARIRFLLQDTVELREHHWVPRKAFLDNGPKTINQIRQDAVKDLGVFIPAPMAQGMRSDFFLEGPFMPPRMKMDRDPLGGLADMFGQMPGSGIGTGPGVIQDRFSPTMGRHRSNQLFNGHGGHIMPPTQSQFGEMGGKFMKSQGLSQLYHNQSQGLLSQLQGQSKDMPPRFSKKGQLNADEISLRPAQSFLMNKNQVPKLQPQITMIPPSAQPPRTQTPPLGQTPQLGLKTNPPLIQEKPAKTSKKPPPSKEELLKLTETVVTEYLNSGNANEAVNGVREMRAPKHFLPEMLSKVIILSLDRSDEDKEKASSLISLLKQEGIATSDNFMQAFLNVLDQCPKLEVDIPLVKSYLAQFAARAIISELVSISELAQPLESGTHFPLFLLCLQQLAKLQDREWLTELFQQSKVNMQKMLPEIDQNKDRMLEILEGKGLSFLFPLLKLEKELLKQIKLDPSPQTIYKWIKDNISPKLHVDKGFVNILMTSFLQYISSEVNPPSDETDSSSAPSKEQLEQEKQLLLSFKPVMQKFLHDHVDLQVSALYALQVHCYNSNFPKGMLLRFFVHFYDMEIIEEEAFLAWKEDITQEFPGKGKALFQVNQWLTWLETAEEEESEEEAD
Sequence of UniProt Q9BW92 (Q9BW92 whole entry): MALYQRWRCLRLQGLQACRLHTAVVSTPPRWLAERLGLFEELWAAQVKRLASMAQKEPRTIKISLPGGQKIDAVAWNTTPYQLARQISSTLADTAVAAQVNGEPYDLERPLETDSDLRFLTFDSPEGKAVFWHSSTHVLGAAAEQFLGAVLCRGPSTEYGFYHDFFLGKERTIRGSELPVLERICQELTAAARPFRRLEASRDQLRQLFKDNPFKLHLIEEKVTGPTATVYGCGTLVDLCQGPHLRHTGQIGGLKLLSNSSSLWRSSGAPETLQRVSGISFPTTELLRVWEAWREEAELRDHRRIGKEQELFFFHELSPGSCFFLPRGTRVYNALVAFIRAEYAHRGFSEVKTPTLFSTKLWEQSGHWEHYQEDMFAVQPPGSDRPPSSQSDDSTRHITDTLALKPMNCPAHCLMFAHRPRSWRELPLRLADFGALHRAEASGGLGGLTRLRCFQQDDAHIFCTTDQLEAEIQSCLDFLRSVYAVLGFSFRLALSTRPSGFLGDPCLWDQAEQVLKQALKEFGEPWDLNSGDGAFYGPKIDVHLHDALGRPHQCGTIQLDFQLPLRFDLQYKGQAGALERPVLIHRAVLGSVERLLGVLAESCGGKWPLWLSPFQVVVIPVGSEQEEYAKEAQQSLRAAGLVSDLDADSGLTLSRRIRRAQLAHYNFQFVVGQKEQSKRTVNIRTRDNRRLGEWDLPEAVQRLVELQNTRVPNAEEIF
Sequence of UniProt Q8IXI1 (Q8IXI1 whole entry, looked up): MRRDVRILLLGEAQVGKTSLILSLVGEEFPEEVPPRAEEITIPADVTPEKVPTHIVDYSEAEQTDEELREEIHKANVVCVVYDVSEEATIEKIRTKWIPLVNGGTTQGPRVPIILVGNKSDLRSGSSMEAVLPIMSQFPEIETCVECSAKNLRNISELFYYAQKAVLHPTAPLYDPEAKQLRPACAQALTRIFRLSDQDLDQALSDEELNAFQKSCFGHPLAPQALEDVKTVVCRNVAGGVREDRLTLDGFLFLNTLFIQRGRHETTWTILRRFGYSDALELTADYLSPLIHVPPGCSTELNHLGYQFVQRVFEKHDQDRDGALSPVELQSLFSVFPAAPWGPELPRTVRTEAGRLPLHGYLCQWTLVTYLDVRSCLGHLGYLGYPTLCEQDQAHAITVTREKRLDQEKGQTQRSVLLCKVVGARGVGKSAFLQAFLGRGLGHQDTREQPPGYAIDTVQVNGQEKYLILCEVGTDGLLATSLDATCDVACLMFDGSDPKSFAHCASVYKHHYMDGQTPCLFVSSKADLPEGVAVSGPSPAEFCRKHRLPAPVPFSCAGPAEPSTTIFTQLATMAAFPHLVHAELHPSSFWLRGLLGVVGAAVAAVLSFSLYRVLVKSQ
Sequence of UniProt Q9H0E3 (Q9H0E3 whole entry): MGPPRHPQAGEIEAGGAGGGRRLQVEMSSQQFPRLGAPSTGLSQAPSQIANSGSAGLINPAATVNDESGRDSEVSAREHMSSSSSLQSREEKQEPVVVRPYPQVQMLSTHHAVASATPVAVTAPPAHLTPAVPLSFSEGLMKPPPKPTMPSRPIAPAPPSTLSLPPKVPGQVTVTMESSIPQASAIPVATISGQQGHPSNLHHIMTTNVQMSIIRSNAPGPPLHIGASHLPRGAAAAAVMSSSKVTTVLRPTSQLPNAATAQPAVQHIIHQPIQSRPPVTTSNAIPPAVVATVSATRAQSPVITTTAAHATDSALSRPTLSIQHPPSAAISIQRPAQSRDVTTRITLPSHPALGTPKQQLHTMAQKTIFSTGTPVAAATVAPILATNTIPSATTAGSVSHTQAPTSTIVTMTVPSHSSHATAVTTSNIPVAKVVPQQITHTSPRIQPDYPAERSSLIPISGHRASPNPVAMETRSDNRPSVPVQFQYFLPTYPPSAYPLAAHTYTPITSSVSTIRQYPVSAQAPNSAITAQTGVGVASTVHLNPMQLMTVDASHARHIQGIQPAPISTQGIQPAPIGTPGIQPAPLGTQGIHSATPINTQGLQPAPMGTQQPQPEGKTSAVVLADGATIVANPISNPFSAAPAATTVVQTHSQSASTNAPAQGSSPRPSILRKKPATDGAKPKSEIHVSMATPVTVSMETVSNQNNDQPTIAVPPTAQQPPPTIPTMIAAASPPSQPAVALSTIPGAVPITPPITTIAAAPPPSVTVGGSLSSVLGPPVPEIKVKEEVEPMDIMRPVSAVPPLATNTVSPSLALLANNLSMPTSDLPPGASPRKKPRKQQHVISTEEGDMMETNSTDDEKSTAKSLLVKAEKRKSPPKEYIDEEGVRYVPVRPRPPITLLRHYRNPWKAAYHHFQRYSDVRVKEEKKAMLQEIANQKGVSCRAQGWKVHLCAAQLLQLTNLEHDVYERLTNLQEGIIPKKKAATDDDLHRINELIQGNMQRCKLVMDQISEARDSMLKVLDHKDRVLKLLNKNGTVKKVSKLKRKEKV
Sequence of UniProt P51649 (P51649 whole entry): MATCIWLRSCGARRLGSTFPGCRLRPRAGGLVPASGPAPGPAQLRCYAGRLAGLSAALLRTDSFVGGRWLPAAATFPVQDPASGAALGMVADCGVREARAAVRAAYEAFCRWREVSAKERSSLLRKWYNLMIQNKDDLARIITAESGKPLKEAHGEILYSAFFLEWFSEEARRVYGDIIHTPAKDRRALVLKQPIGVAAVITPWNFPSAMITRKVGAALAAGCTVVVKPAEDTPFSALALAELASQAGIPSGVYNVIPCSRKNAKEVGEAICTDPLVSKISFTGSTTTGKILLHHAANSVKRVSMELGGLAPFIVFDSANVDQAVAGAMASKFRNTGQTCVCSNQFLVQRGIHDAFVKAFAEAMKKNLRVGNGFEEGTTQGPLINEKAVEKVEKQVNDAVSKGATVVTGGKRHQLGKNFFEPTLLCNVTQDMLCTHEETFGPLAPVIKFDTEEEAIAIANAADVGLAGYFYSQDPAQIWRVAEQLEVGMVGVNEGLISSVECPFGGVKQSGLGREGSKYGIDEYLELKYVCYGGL
Sequence of UniProt O15042 (O15042 whole entry): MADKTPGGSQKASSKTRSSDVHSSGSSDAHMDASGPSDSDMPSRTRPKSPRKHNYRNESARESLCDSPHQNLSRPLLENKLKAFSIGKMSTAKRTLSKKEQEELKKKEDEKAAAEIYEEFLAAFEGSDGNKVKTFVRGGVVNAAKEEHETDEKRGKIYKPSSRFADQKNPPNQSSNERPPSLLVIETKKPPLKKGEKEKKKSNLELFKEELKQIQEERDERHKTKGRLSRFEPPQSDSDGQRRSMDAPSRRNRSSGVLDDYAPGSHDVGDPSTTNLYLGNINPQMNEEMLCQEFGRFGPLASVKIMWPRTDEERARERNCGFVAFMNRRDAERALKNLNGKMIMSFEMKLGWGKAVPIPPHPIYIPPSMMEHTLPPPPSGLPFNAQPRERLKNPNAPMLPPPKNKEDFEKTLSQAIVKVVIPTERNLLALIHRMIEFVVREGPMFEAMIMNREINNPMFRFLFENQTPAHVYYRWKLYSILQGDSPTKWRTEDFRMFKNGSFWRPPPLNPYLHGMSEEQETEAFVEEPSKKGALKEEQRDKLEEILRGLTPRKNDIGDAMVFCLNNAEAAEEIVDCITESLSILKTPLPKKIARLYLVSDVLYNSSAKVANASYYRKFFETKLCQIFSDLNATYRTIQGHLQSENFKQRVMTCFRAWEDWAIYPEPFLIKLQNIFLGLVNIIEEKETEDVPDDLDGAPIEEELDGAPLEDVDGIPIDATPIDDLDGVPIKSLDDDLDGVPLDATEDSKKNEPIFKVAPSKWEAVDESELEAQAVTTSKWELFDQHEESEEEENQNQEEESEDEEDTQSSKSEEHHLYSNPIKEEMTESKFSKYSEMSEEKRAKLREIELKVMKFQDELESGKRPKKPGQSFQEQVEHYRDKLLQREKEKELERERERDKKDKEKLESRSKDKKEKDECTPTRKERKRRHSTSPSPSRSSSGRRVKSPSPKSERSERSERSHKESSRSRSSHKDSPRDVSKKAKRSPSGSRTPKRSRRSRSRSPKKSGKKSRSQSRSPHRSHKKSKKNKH
Sequence of UniProt P53801 (P53801 whole entry): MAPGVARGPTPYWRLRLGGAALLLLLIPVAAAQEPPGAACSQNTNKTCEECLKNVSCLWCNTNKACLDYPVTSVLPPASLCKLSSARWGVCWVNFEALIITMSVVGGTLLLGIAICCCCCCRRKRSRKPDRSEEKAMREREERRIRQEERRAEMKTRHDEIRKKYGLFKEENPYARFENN

Target	thermal stability z-score (lipoamide; [1])	thermal stability z-score (lipoamide; arsenate co-treatment: none)	thermal stability z-score (potassium arsenate)
MRPS9 (UniProt P82933)	0.316	0.203	0.195
TTC13 (UniProt Q8NBP0)	-0.787	-1.08	0.595
SGTB (UniProt Q96EQ0)	0.0457	0.112	-0.308
TARS2 (UniProt Q9BW92)	0.183	0.625	0.922
CCT3 (UniProt P49368)	0.066	-0.106	0.00358
LYPLA1 (UniProt O75608)	0.624	-0.159	-0.862
PAK1 (UniProt Q13153)	0.413	0.286	0.771
CEP83 (UniProt Q9Y592)	0.829	1.19	-0.498
BCL9L (UniProt Q86UU0)	0.0577	0.096	-0.128
TMED5 (UniProt Q9Y3A6)	-1.78	-1.51	0.321
EIF4G2 (UniProt P78344)	-0.0525	0.548	0.233
SYVN1 (UniProt Q86TM6)	-2	-2.05	-0.421
STIM2 (UniProt Q9P246)	-0.102	-0.0704	-0.103
PPP2R5A (UniProt Q15172)	0.468	0.527	0.703
MYH9 (UniProt P35579)	0.442	0.363	0.2
PRKCI (UniProt P41743)	-0.507	-0.312	-0.914
H1FX (UniProt Q92522)	-0.468	-0.893	-1.7
NAV2 (UniProt Q8IVL1)	0.0134	-0.0355	-0.055
CANX (UniProt P27824)	-3.78	-3.12	0.851
PARP4 (UniProt Q9UKK3)	0.157	-0.044	0.742
GNAI2 (UniProt P04899)	0.83	0.313	-0.276
UBA6	-0.423	-0.209	0.0818
WBSCR16 (UniProt Q96I51)	1.56	0.878	0.683
NOB1 (UniProt Q9ULX3)	-0.423	-0.679	-0.873

Target	thermal stability z-score (lipoamide; [1])	thermal stability z-score (lipoamide; arsenate co-treatment: none)	thermal stability z-score (potassium arsenate)
SAP130 (UniProt Q9H0E3)	-0.208	-0.267	-0.246
ZNF609 (UniProt O15014)	0.0184	-0.0967	-0.0848
BRAP (UniProt Q7Z569)	-0.31	0.051	0.485
XPO7 (UniProt Q9UIA9)	-0.0212	-0.0682	0.621
U2SURP (UniProt O15042)	0.962	0.428	0.507
MCC (UniProt P23508)	-0.1	-0.0517	-0.0394
RAPGEF2 (UniProt Q9Y4G8)	0.309	-0.293	-0.388
C1ORF131 (UniProt Q8NDD1)	1.04	-0.388	-0.733
PTTG1IP (UniProt P53801)	-0.059	-0.0338	-0.2
RHOT2 (UniProt Q8IXI1)	-0.832	-0.929	-0.176
GNAQ (UniProt P50148)	-0.312	0.15	-1.39
TPM4 (UniProt P67936)	0.31	0.407	-0.0802
CDK4 (UniProt P11802)	1.15	1.03	0.783
PLRG1 (UniProt O43660)	1.67	-0.0202	-0.346
UNC13B (UniProt O14795)	-0.0346	-0.119	-0.156
UBE2E3 (UniProt Q969T4)	0.196	-0.0847	1.92
UBQLN4 (UniProt Q9NRR5)	1.81	1.78	0.334
MRPS26 (UniProt Q9BYN8)	0.609	0.375	0.123
SNX27 (UniProt Q96L92)	-0.141	0.167	0.511
AVL9 (UniProt Q8NBF6)	0.0764	0.143	0.203
DUSP3 (UniProt P51452)	0.504	0.265	-0.191
PCBD1 (UniProt P61457)	0.499	0.492	0.213
SENP6 (UniProt Q9GZR1)	-0.0511	-0.0676	-0.18
KHSRP (UniProt Q92945)	0.21	0.161	0.486

Target	thermal stability z-score (lipoamide; [1])	thermal stability z-score (lipoamide; arsenate co-treatment: none)	thermal stability z-score (potassium arsenate)
SNRPB|SNRPN	0.508	0.162	0.578
MMTAG2 (UniProt Q9BU76)	2.29	0.684	0.188
DNAAF5 (UniProt Q86Y56)	-0.979	0.336	0.875
C17ORF59 (UniProt Q96GS4)	0.136	-0.131	-0.163
SRRM2 (UniProt Q9UQ35)	2.25	1.42	-0.494
USP16 (UniProt Q9Y5T5)	-0.544	-0.649	0.229
TMEM43 (UniProt Q9BTV4)	-3.42	-3.08	0.701
FBXO9 (UniProt Q9UK97)	-0.495	-1.62	-0.61
LYPD3 (UniProt O95274)	-0.113	0.0676	-0.484
CRBN (UniProt Q96SW2)	0.304	-0.141	-0.0801
NKIRAS2 (UniProt Q9NYR9)	0.0549	-0.0133	0.137
CASP2 (UniProt P42575)	-0.172	0.304	-1
TRA2B (UniProt P62995)	2.37	-0.56	-0.649
LLGL1 (UniProt Q15334)	-0.455	-0.324	-0.755
MIS18A (UniProt Q9NYP9)	-0.127	0.246	0.683
RPL13 (UniProt P26373)	-0.064	0.00879	-1.05
ALDH5A1 (UniProt P51649)	0.0808	-0.136	0.302
RPS15 (UniProt P62841)	0.148	0.282	-0.957
PRPF3 (UniProt O43395)	2.57	2.44	-0.0589
C17ORF62 (UniProt Q9BQA9)	0.898	0.761	1.37
C15ORF40 (UniProt Q8WUR7)	0.334	-0.344	-1.19
ATP6V0A1 (UniProt Q93050)	0.0809	0.332	0.705
LIG4 (UniProt P49917)	-0.146	0.0757	-0.107
